Reference: publication PMC6993007, “Protocol for bevacizumab purification using Ac-PHQGQHIGVSK-agarose” (MethodsX, 2019)

What was measured:
[1] = test system: bevacizumab; conditions: in words, Kd not given; ref [2]; cited from earlier work
Text: Bevacizumab is a monoclonal antibody, produced in CHO cells, used for the treatment of many human cancers. It is an anti-vascular endothelial growth factor (antsi-VEGF) that blocks the growth of tumor blood vessels. Nowadays its purification is achieved by affinity chromatography (AC) using protein A which is a very expensive ligand. […] This short peptide ligand has higher stability and lower cost than protein A and it can be prepared very easily by solid phase peptide synthesis. The ...

[2] = test system: bevacizumab; assay: Bevacizumab purification by Ac-PHQGQHIGVSK-agarose affinity chromatography from the CHO cell culture; conditions: in words; mild elution conditions
Description: Material • Adsorption buffer: 20 mM sodium phosphate, pH 7.0, 1 M (NH4)2SO4 • A column containing 0.5 mL (0.5 × 2.5 cm) of Ac-PHQGQHIGVSK-agarose • Elution buffer: 20 mM sodium phosphate, pH 7.0 • Absorption UV/VIS spectrophotometer
Procedure • 1 Clarify the CHO cell culture containing bevacizumab by centrifugation or filtration. • 2 Add to the sample the amount of (NH4)2SO4 necessary to achieve a final concentration of 1 M. • 3 Equilibrate the chromatographic column containing Ac-PHQGQHIGVSK-agarose with 20 volumes of adsorption buffer. • 4 Load the column with CHO cell culture filtrate containing bevacizumab. Note: the amount of bevacizumab loaded to the column must be lower than the maximum capacity of the chromatographic matrix synthesized. • 5 Wash the column with adsorption buffer until the absorbance at 280 nm achieves the baseline value. • 6 Elute the bound protein by adding 20 mM sodium phosphate, pH 7.0. • 7 Measure total protein concentration with Bradford reagent using pure bevacizumab as the protein standard. • 8 Measure bevacizumab concentration by HPLC using a protein A analytical column as per Zou et al.. • 9 Perform sodium dodecyl sulfate polyacrylamide gel electrophoresis (SDS-PAGE) (12.5 % under reductive conditions) as described by Laemmli and stain gels with Coomassie Blue following the standard procedure.

Row | Substance | affinity for bevacizumab [1] | integrity of bevacizumab (mAb) [2]
1 | Ac-PHQGQHIGVSK-NH2 | binds bevacizumab with high affinity | 
2 | bevacizumab: anti-vascular endothelial growth factor (anti-VEGF) monoclonal antibody, produced in CHO cells |  | preserve the integrity
